Assay results: publication PMC3236741 (PLoS ONE, 2011)
“Also recorded” adds a separate entry of the source. Marks after values point to notes of the source that are not given here. Peptide text beside a SMILES is read from it.

What was measured:
[1] = target: T1, chymase (Homo sapiens, UniProt P23946); assay: Hydrolysis of colorimetric substrate N-suc-AAPF-pNA by human plasma membrane with or without chymostatin; format: biochemical; details: chymostatin 50 µM; 1 mM N-suc-AAPF-pNA; 50 mM Tris pH 8.0, 1.5 M NaCl, 1% DMSO; 37°C, 0–180 min; absorbance 410 nm; six human atrial tissues
T1 construct: hydrolysis of 1 mM N-suc-AAPF-pNA in the plasma membrane of six human atrial tissues; from tissue; host or cells: human left atrial appendage tissue, plasma membrane fraction
T1 sequence (P23946 22-247): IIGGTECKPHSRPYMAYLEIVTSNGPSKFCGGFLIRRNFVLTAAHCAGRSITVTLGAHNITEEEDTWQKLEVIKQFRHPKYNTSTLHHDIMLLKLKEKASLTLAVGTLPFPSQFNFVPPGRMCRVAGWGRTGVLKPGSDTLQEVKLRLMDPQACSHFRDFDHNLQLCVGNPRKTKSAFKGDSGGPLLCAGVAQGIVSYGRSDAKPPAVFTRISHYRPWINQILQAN
Method: Chymase activity was also monitored by evaluating the hydrolysis of 1 mM N-suc-AAPF-pNA in the plasma membrane of six human atrial tissues. Briefly, all assays were performed in a total reaction volume of 200 µL in the 96-well microtiter plates containing plasma membranes with or without the presence of chymostatin (chymase inhibitor; 50 µM) as described above in 50 mM Tris buffer (pH 8.0) containing 1.5 M NaCl and 1% dimethylsulphoxide. The increase in absorbance at 410 nm was measured at 37°C for different time points (0–180 min) for the released p-nitroaniline. In addition, Ang II formation from ^125I-Ang-(1-12) was also investigated in the absence and in the presence of TEI-F00806 (100 µM; an orally active chymase-specific inhibitor provided by Teijin Pharma, Tokyo, Japan). Briefly, plasma membranes isolated from human atrial tissue (50 µg per reaction mixture) and ^125I-Ang-(1-12) were incubated in the presence or absence of TEI-F00806 (as described above for chymostatin) for 37°C for 60 min. At the end of incubation, samples were analyzed by HPLC for Ang II formation from ^125I-Ang-(1-12).

[2] = test system: Ang I induced carotid artery vasoconstriction; details: administration of chymostatin in enalapril-treated SHR rats; ref Becari et al. [30]; cited from earlier work
Source text: A critical role for chymase in accounting for the processing of Ang-(1-12) is reinforced through the corresponding consistency of the chymase activity measured in each of the human samples. Since the atrial tissue employed in these studies was obtained from subjects undergoing cardiac surgery for the treatment of heart rhythm disorders (Table 2), we cannot exclude the possibility that the relatively high chymase activity reflects increased expression of this enzyme in this condition. Although an increase in cardiac chymase activity has been reported in both clinical and experimental forms of h ...

[3] = plasma membrane (50 µg) isolated from human atrial appendage, Minus Lisinopril group; details: 37°C, up to 60 min
[4] = plasma membrane (50 µg) isolated from human atrial appendage, Minus Chymostatin group; details: 37°C, up to 60 min
[5] = plasma membrane (50 µg) isolated from human atrial appendage, No RAS inhibitors group; details: 37°C, up to 60 min
[6] = plasma membrane (50 µg) isolated from human atrial appendage, All RAS inhibitors group; details: 37°C, up to 60 min
[7] = target: protein A purified polyclonal antibody directed to the COOH-terminus of human Ang-(1-12); assay: Binding affinity and cross-reactivity of protein A purified polyclonal Ang-(1-12) antibody (IgG); details: protein A purified polyclonal antibody (IgG) to human Ang-(1-12); cross-reactivity
Method: Left atrial tissues from human cardiac patient were fixed in 4% paraformaldehyde for 24 h and then transferred into 70% ethanol. After dehydration, the tissues were embedded in paraffin and each section was cut in 5-µm thick sections. Immunohistochemistry was performed using well characterized protein A purified polyclonal antibody directed to the COOH-terminus of full length of human Ang-(1-12) sequence [Asp^1-Arg^2-Val^3-Tyr^4-Ile^5-His^6-Pro^7-Phe^8-His^9-Leu^10-Val^11-Ile^12] (AnaSpec, San Jose, CA). The binding affinity and cross-reactivity of protein A purified antibody (IgG) was checked for human Ang-(1-12) and small Ang peptides [Ang I, Ang II and Ang-(1-7)]. […] The antibody was independently used to detect immunoreactive Ang-(1-12) in human atrial tissue using the avidin-biotin horseradish peroxidase techniques as previously reported by our laboratory, [11]. Briefly, slides were deparaffinized in xylene (15 min), subsequently dipped in ethanol (100%, 95% and 75%, respectively) and washed in double distilled water. The clear slides were incubated in 3% hydrogen peroxide to block the endogenous peroxidase. […]

[8] = ^125I-Ang-(1-12) metabolism by plasma membranes from human atrial appendage, HPLC with inline γ-detector; details: human atrial plasma membrane 50 µg, 1 nmol/L substrate, 15 min pre-incubation, 60 min at 37°C, HPLC γ-detection, mean ± SEM, n = 9
Method: Membranes were prepared at 4°C in a manner similar to the approaches previously described by our laboratory [52] and by Urata et al. [26] Frozen atrial tissue (50–100 mg) was homogenized at 4°C in 1 mL PBS (pH 7.4) in a Qiagen TissueLyzer (Valencia, CA). The homogenate was centrifuged at low spin (200 g) for 5 min at 4°C to remove the connective tissues and cell debris. The supernatant was transferred into a new tube and centrifuged at 28,000 g for 20 min at 4°C to collect the plasma membrane. The pellet was resuspended in PBS and centrifuged as described above. Finally, the pellet was resuspended in PBS and stored at −80°C till its use for metabolism studies. The concentration of each cardiac membrane preparation is expressed in terms of protein concentration measured by Bradford Reagent using bovine serum albumin (BSA) as the standard; the results were normalized in terms of per mg protein.
For ^125I-Ang-(1-12) metabolism studies, plasma membranes (50 µg per reaction mixture) were preincubated for 15 min under various combinations of RAS and peptidases inhibitors (50 µM each). After preincubation of plasma membranes with the inhibitors, human ^125I-Ang-(1-12) (1 nmol/L; specific activity 3,900 cpm/fmol) was added to the reaction medium and incubated for an additional 60 min at 37°C. At the end of the incubation time, the reaction was stopped by adding equal volume of 1% phosphoric acid, mixed well, and centrifuged at 28,000 g for 20 min to remove the plasma membrane. […] On the day of HPLC analysis, the samples were filtered before separation by reverse-phase high-performance liquid chromatography. We used a linear gradient from 10% to 50% mobile phase B at a flow rate of 0.35 mL/min at ambient temperature. The solvent system consisted of 0.1% phosphoric acid (mobile phase A) and 80% acetonitriles/0.1% phosphoric acid (mobile phase B). The eluted ^125I products were monitored by an in-line flow-through gamma detector (BioScan Inc., Washington, DC). Products were identified by comparison of retention time of synthetic [^125I] standard peptides and the data were analyzed with Shimadzu LCSolution (Kyoto, Japan) acquisition software.

[9] = test system: human leukocyte elastase; details: cited from earlier work
[10] = plasma membrane of six human atrial tissues in 50 mM Tris buffer (pH 8.0) containing 1.5 M NaCl and 1% dimethylsulphoxide; details: 37°C, up to 180 min
[11] = plasma membrane of six human atrial tissues in 50 mM Tris buffer (pH 8.0) containing 1.5 M NaCl and 1% dimethylsulphoxide, with chymostatin; details: 37°C, up to 180 min

## CC(C)C[C@H](NC(=O)[C@@H](NC(=O)N[C@@H](Cc1ccccc1)C(=O)O)[C@@H]1CCN=C(N)N1)C(=O)N[C@H](C=O)Cc1ccccc1 [chymostatin, Chymostatin]
[1]
  hydrolysis of N-suc-AAPF-pNA by human plasma membrane in the presence of inhibitor: completely blocked
[2]
  inhibition of Ang I induced carotid artery vasoconstriction: 80%

## H-Asp^1-Arg^2-Val^3-Tyr^4-Ile^5-His^6-Pro^7-Phe^8-His^9-Leu^10-Val^11-Ile^12-OH
[3]
  fragment found: Ang II, minor
[4]
  cleaved bond: Phe8-His9, major
  fragment found: Ang I, minor
[5]
  cleaved bond: Phe8-His9, major
  fragment found: Ang I, minor
[6]
  fragment found: Ang I, minor; also recorded: Ang II, minor

## angiotensin II (DRVYIHPF; Angiotensin-2; UniProt P01019 25-32, looked up) [Ang II, angiotensin peptide, main metabolic product of ^125I-Ang-(1-12)]
[7]
  EC50: 0.28 ± 0.02 nM

## angiotensin-(1-7) [Ang-(1-7)]
[7]
  binding affinity of the antibody (EC50): below detection

## CC[C@H](C)[C@H](NC(=O)[C@@H](NC(=O)[C@H](CC(C)C)NC(=O)[C@H](Cc1c[nH]cn1)NC(=O)[C@H](Cc1ccccc1)NC(=O)[C@@H]1CCCN1C(=O)[C@H](Cc1c[nH]cn1)NC(=O)[C@@H](NC(=O)[C@H](Cc1ccc(O)cc1)NC(=O)[C@@H](NC(=O)[C@H](CCCNC(=N)N)NC(=O)[C@@H](N)CC(=O)O)C(C)C)[C@@H](C)CC)C(C)C)C(=O)O [Ang-(1-12), angiotensin-(1-12)] (H-DRVYIHPFHLVI-OH)
[8]; All RAS inhibitors (plus lisinopril, SCH39370, MLN-4760, chymostatin; 50 µM each)
  Percent of ^125I-Ang-(1-12) parent control remained unmetabolized: 98±7%
[8]; Minus chymostatin (all inhibitors except chymase inhibitor; 50 µM each)
  Percent of ^125I-Ang-(1-12) parent control remained unmetabolized: 31±13 ^a %
[8]; Minus lisinopril (all inhibitors except ACE inhibitor; 50 µM each)
  Percent of ^125I-Ang-(1-12) parent control remained unmetabolized: 98±5%
[8]; NO RAS inhibitors (only amastatin, bestatin, benzyl succinate, PCMB; 50 µM each)
  Percent of ^125I-Ang-(1-12) parent control remained unmetabolized: 22±10 ^a %

## N-Succinyl-Ala-Ala-Pro-Phe-p-nitroanilide
[9]
  not cleaved: not hydrolyzed by human leukocyte elastase
[10]
  fragment found: p-nitroaniline
[11]
  not cleaved: hydrolysis completely blocked in the presence of chymostatin
